Experiments:
[1] = biological target: T1, r-Mal d 1.01 (recombinant Mal d 1.0108) (Malus domestica, UniProt Q9SYW3); test: isothermal titration calorimetry, independent model; conditions: 0.1 M sodium phosphate pH 7, 25 °C; 0.2 mM protein, 4 mM ligand injected; stoichiometry fixed at n = 1; weak nonspecific surface binding; unreliable
T1 construct: gene MALD1; 15N-labelled in M9 medium for HSQC NMR; one cysteine (Cys107)
T1 sequence (Q9SYW3 1-159): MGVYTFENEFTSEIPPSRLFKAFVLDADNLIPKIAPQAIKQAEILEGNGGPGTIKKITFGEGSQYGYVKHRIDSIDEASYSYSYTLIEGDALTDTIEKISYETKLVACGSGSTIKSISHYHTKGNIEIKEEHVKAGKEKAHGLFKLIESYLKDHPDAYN

[2] = biological target: T1, r-Mal d 1.01 (recombinant Mal d 1.0108); test: untargeted bottom-up LC-MS of tryptic peptides; format: binding; conditions: covalent; Michael addition at Cys107 (peptide LVACGSGSTIK) via o-quinone formed by autoxidation; excess ligand in water, 20 min, room temperature
[3] = biological target: T1, r-Mal d 1.01 (recombinant Mal d 1.0108); test: 1H-15N-HSQC NMR chemical shift perturbation; format: binding; conditions: 50 mM phosphate pH 7, 10% D2O, 25 °C; 100 μM 15N-protein, 0.1-2 mM ligand; no specific site, scattered over surface

| SMILES | KD [1] | % modification of Cys107 peptide [2] | 1H-15N-HSQC NMR chemical shift perturbation [3] |
| --- | --- | --- | --- |
| Oc1cc(O)c2c(c1)O[C@H](c1ccc(O)c(O)c1)[C@H](O)C2 [EC, (−)-epicatechin] | 1400 µM | ~ 30% | – |
| O=C(/C=C/c1ccc(O)c(O)c1)O[C@@H]1C[C@](O)(C(=O)O)C[C@@H](O)[C@H]1O [CA, chlorogenic acid] | – | – | CA showed by far the strongest impact on the protein surface |
| Oc1cc(O)c2c(c1)O[C@H](c1ccc(O)c(O)c1)[C@@H](O)C2 [CAT, (+)-catechin] | 500 ± 0 µM | – | – |

More lines, main results first:

| KD [1] | SMILES | % modification of Cys107 peptide [2] | 1H-15N-HSQC NMR chemical shift perturbation [3] |
| --- | --- | --- | --- |
| 1200 ± 200 µM | Oc1cc(O)c2c(c1)O[C@H](c1ccc(O)c(O)c1)[C@H](O)[C@H]2c1c(O)cc(O)c2c1O[C@H](c1ccc(O)c(O)c1)[C@@H](O)C2 [PC B1, procyanidin B1] | – | – |
| 600 ± 0 µM | Oc1cc(O)c2c(c1)O[C@H](c1ccc(O)c(O)c1)[C@H](O)[C@H]2c1c(O)cc(O)c2c1O[C@H](c1ccc(O)c(O)c1)[C@H](O)C2 [PC B2, procyanidin B2] | – | – |
